Reference: PMC9394307, “Discovery of Putative Dual Inhibitor of Tubulin and EGFR by Phenotypic Approach on LASSBio-1586 Homologs” (Pharmaceuticals, 2022)
Read-outs that look alike come from different tables or passages of the source.

Key:
[1] = system: EGFR in PC-9 cell line (EGFR^L858R); test: Guava Muse EGFR-RTK Activation Dual Detection Kit, flow cytometry; type: cell-based, human
Description: (§1) Flow cytometry was applied to help elucidate the mechanism of action of the studied compounds, both to verify the cell cycle phase and to verify the action on EGFR protein kinase.
(§2) The anti-tubulin effect was evaluated by seeding H1975, H292 and PC-9 into 6-well plates at a density of 2 × 10^5 per well. The cells were treated with the selected compounds for 72 h. Cells were harvested and stained according to the protocols of The Guava Muse® Cell Cycle Kit (MCH100106) to quantitatively measure the percentage of cells in the G2/M phases of the cell cycle and the EGFR-RTK Activation Dual Detection Kit (MCH200102) (Luminex®) to measure EGFR phosphorylation in relation to total EGFR expression in the cell population, according to the manufacturer’s instructions for use in test kits using a Guava Muse® Cell Analyzer (Luminex®). Each experiment was performed at least three times independently.

HL-60 = test: MTT cell viability assay, HL-60; type: cell-based, human; conditions: Homo sapiens, read-out: CC50 (µM) (CI) HL-60
Description: (§3) The cytotoxic activity of compounds 3–13 was determined based on an MTT assay against different human tumor cell lines, using LASSBio-1586 (2), LASSBio-1735 (3), CA-4 (1) and pelitinib as standards (Table 2). To determine the cytotoxic selectivity index, compounds were also evaluated toward human lymphocytes (Table 3).
(§4) The target compounds were tested (0.0001–100 µM) for cytotoxic activity against selected human cancer cell lines, such as HL-60 (acute promyelocytic leukemia), MCF-7 (mammary adenocarcinoma), PC-3 (prostate adenocarcinoma), H1975 (non-small cell lung cancer—EGFR^L858R+T790M), PC-9 (non-small cell lung cancer—EGFR^L858R) H292 (mucoepidermoid pulmonary carcinoma—EGFR wild type), LoVo (colorectal adenocarcinoma—EGFRwild type) and GM16000 (lymphocyte). All the human cancer cell lines were purchased from Cell Bank of Rio de Janeiro—BCRJ. They were cultured in RPMI 1640 medium with 10% (v/v) FBS, 2 mM glutamine, at 37 °C in a humidified incubator containing 5% CO2.
(§5) The cytotoxicity of the compounds was evaluated by the MTT assay. […] For lymphocytic lines, a density of 0.3 × 10^6 cells/mL was used. Afterwards they were treated with varying concentrations of the target compounds 2–12 (0.0001–100 µM), CA-4 (1) and pelitinib at 37 °C, in triplicate. The medium was incubated with 20 μL of 5 mg/mL MTT solution for 3 h in a humidified incubator containing 5% CO2 [11].
(§6) The purple-colored formazan crystals formed in the wells were dissolved in DMSO and their absorbance was measured at 595 nm with a microplate reader (SpectraMax M5, Molecular Devices).

H1975 = test: MTT cell viability assay, H1975; type: cell-based, human; conditions: Homo sapiens, read-out: CC50 (µM) (CI) H1975
Description: as §3, §4, §5, §6

H292 = test: MTT cell viability assay, H292; type: cell-based, human; conditions: Homo sapiens, read-out: CC50 (µM) (CI) H292
Description: as §3, §4, §5, §6

LoVo = test: MTT cell viability assay, LoVo; type: cell-based; conditions: Homo sapiens, read-out: CC50 (µM) (CI) LoVo
Description: as §3, §4
(§7) The cytotoxicity of the compounds was evaluated by the MTT assay. The cell lines were cultured in 96 well plates for 72 h with a density of 0.1 × 10^5 cells/mL to 0.7 × 10^5 cells/mL to adherent cell lines. For lymphocytic lines, a density of 0.3 × 10^6 cells/mL was used. Afterwards they were treated with varying concentrations of the target compounds 2–12 (0.0001–100 µM), CA-4 (1) and pelitinib at 37 °C, in triplicate. The medium was incubated with 20 μL of 5 mg/mL MTT solution for 3 h in a humidified incubator containing 5% CO2 [11].
as §6

MCF-7 = test: MTT cell viability assay, MCF-7; type: cell-based, human; conditions: Homo sapiens, MCF7, 72 h, read-out: CC50 (µM) (CI) MCF-7
Description: as §3, §4, §7, §6

PC-3 = test: MTT cell viability assay, PC-3; type: cell-based; conditions: Homo sapiens, PC-3, 72 h, read-out: CC50 (µM) (CI) PC-3
Description: as §3, §4, §7, §6

PC-9 = test: MTT cell viability assay, PC-9; type: cell-based, human; conditions: Homo sapiens, read-out: CC50 (µM) (CI) PC-9
Description: as §3, §4, §5, §6

[2] = MTT cell viability assay, GM16000 lymphocytes; type: cell-based; conditions: human lymphocytes, value (95% CI)
Description: as §3
To establish the cytotoxic selective index (SI) of LASSBio-1586 homologs, they were studied on human lymphocyte cell lines (GM16000), using the MTT assay. The SI was calculated by the ratio between the CC50 on tumor and non-tumor cell lines. Although there is no consensus, values of SI ≥ 10 is considered satisfactory to assign safety to a new cytotoxic agent. This value means that the compound is more than ten times more cytotoxic to the tumor cell line than to normal cell line.
as §4, §7, §6

H1975 cells [3] = test: Cell cycle analysis by flow cytometry (Guava Muse Cell Cycle Kit); type: cell-based, human; conditions: H1975, 48 h of treatment; CA-4 0.04 µM, LASSBio-1586 2.0 µM, LASSBio-1735 0.08 µM, LASSBio-2070 3.0 µM, LASSBio-2074 1.5 µM; vs DMSO 0.1%
Description: Changes in the cell cycle are important aspect in tumorigenesis. Therefore, the identification of the steps related to inhibition of cell multiplication is an important process during the discovery of new antitumoral drug candidates. […] Flow cytometry was used for cell cycle analysis to estimate the percentages of a cell population in the different phases of the cell cycle. The analysis was performed using the lung cancer cell line H1975 treated with CA-4 (1, 0.04 µM), LASSBio-1586 (2, 2.0 µM), LASSBio-1735 (3, 0.08 µM), LASSBio-2070 (10, 3.0 µM) and LASSBio-2074 (11, 1.5 µM).
as §1
as §2, with “The cells were treated with the selected compounds for 72 h.” left out

H1975 cells [4] = test: Immunofluorescence of β-tubulin / microtubules; type: cell-based, human; conditions: H1975, 48 h; CA-4 0.3 µM, vincristine 0.5 µM, taxol 0.1 µM, LASSBio-1586 10 µM, LASSBio-1735 0.5 µM, LASSBio-2070 4.5 µM, LASSBio-2074 20 µM
Description: Antitubulin agents have been broadly classified into destabilizing or stabilizing agents, based on their interference with the dynamic balance of polymerization or depolymerization of microtubules. […] CA-4 (1, 0.3 µM), vincristine (0.5 µM) and taxol (0.1 µM) were used as standard controls.
After incubation, cells were rinsed with PBS and fixed with 4% paraformaldehyde in PBS for 10 min at room temperature. They were then permeabilized with 0.5% Triton-X 100 in PBS 3 times for 10 min. The same solution was used for all subsequent washing steps. Cells were incubated with an anti-beta-tubulin antibody for 1 h at 37 °C. After incubation, cells were washed for 30 min and incubated with Alexa Fluor® 488, conjugated secondary antibody for 1 h at 37 °C, and nuclei were labeled with DAPI (0.1 mg/mL in 0.9% NaCl).
Live cultured cells grown in coverslips were mounted in Prolong Gold solution (Molecular Probes, USA) and were imaged on a Leica TCS SPE confocal microscope (Leica Microsystems, Germany) using 63x 1.3 N.A. oil immersion and the images acquired by the LAS X software. Cell morphology, focusing on the microtubules was analyzed, qualitatively, using the public domain NIH ImageJ Program (developed at the National Institutes of the USA Health and available on the internet at http://imagej.nih.gov/ij/ (accessed on 1 September 2021).

[5] = MTT cell viability assay, GM16000 lymphocytes; type: cell-based; conditions: human lymphocytes, value (95% CI); remark: listed apart in the source

Row | SMILES | cells with Inactivated EGFR (EGFR inactivation index) [1] [%] | CC50 (HL-60; HL-60, 48 h) [µM] | CC50 (HL-60; HL-60, 72 h) [µM] | CC50 (H1975; NCI-H1975, 48 h) [µM] | CC50 (H1975; NCI-H1975, 72 h) [µM] | CC50 (H292; NCI-H292, 48 h) [µM] | CC50 (H292; NCI-H292, 72 h) [µM] | CC50 (LoVo; 48 h) [µM] | CC50 (LoVo; 72 h) [µM] | CC50 (MCF-7) [µM] | CC50 (PC-3) [µM] | CC50 (PC-9; PC-9, 48 h) [µM] | CC50 (PC-9; PC-9, 72 h) [µM] | CC50 at 72 h [2] [µM] | cell cycle distribution (G0/G1, S, G2/M) (H1975 cells [3]) | cell morphology after treatment (H1975 cells [4]) | effect on microtubules (stabilizing / destabilizing profile) (H1975 cells [4]) | CC50 at 48 h [5] [µM]
1 | C=CC(=O)Nc1cc(Nc2nccc(-c3cn(C)c4ccccc34)n2)c(OC)cc1N(C)CCN(C)C [Osimertinib, reference compound] | 30 |  |  |  |  |  |  |  |  |  |  |  |  |  |  |  |  | 
2 | COc1ccc(/C=C\c2cc(OC)c(OC)c(OC)c2)cc1O [CA-4 (1), Combretastatin A-4, reference compound] |  | 1.3 | 0.077 | 0.058 | 0.035 | 0.091 | 0.013 | 0.179 | 0.039 | 8.58 | 0.096 | 0.025 | 0.01 | 0.064 | increased cells in phase G2/M | rounded shape | typical response of microtubule destabilizing agents | 0.016
